Test results taken from patent publication US11767520B2, “Compositions and methods for treating lung inflammation” (aTyr Pharma, Inc., priority 2017, dated 2023).

Columns and labels:
[1] = test system: bleomycin-induced lung fibrosis; experiment: Survival, BLM-induced lung fibrosis mouse model (Example 1, Table E2); assay type: in vivo, mouse (male C57Bl/6J); settings: for Survival (number of animals surviving to study day): Dex. 0.25 mg/kg PO, BLM mice, 12 at start
Method: (§1) Lung inflammation and fibrosis were induced in male C57Bl/6J mice by oropharyngeal administration of BLM. After the habituation phase mice were randomized based on body weight over the different groups. Under isoflurane anesthesia, 50 μl PBS or BLM was dripped onto the vocal cords facilitating aspiration. Mice were sacrificed at day 21 using a terminal bleed under isoflurane anesthesia.
(§2) Daily oral treatments commenced on Day 0, while daily IV treatments commenced on Day 8. Dosing was planned to continue until the day of termination (Day 21), however, due to high mortality in IV treated groups (see results), IV dosing was skipped on Day 19 and Day 20. […] Subsequently, the mice received 8% D20 (Kinemed, Emeryville) drinking water until sacrifice to maintain labeling of newly formed collagen. Body weight was monitored three times a week.
The study commenced with 7 animals in the non-diseased control group and 12 animals in the BLM-induced groups. Survival is show in Table E2 below.

[2] = Body weight, BLM mouse model (Example 1); assay type: in vivo, mouse (male C57Bl/6J); settings: BLM-induced mice; daily PO from Day 0: dexamethasone 0.25 mg/kg, Nintedanib 60 mg/kg
Method: as §1, §2

[3] = test system: bleomycin-induced lung fibrosis; experiment: Lung wet and dry weight, BLM mouse model (Example 1); assay type: in vivo, mouse (male C57Bl/6J); settings: BLM-induced mice; dexamethasone 0.25 mg/kg PO daily from Day 0
Method: as §1, §2
(§3) The five lung lobes were collected and isolated. Wet weight of the medial and accessory lung lobes was recorded. The lobes were then snap frozen and stored at <−70° C. until use for hydroxyproline analysis. The left lung lobe was inflated and fixed for 48 hours in 4% formaldehyde and embedded in paraffin for histological analysis. The cranial lung lobe was snap frozen and stored at −80° C. until shipment to Kinemed for the determination of new collagen formation.

[4] = test system: bleomycin-induced lung fibrosis; experiment: Histological fibrosis (modified Ashcroft) score, BLM mouse model (Example 1); assay type: in vivo, mouse (male C57Bl/6J); settings: BLM-induced mice; dexamethasone 0.25 mg/kg/dose from day of BLM instillation; Summary value, significant
Method: as §3
Sections of the left lung lobe were stained using Masson's Trichrome and were scored in a blinded fashion using a modified Ashcroft score (Hubner et al., BioTechniques. 44:507-511, 514-507, 2008). Hydroxyproline content was determined in the medial and accessory lung lobes using acid hydrolysis followed by a chromogenic assay (QuickZyme Biosciences, Leiden, Netherlands). Newly formed collagen was measured in the cranial lung lobe by Kinemed Inc., Emeryville, USA using the fraction of body water enriched in 2H for normalization.

[5] = Body weight, BLM rat model, combination study (Example 3); assay type: in vivo, rat (male Sprague Dawley); settings: BLM-induced rats; Nintedanib, Pirfenidone or Test Article (HRS^FC1 3 mg/kg IV weekly), alone or in combination, from Day 9
Method: (§4) PBS or BLM was administered under isoflurane anesthesia. Excess rats were induced with BLM and used to replace any animals with excessive body weight loss.
(§5) All treatments commenced on Day 9.
(§6) In-life, body weights were measured and clinical observations were conducted daily. On Days 8, 15 and 21, animals were removed from their home cages and placed individually into whole body plethysmography chambers. After a 20-minute acclimatization phase, respiratory parameters were recorded for 10 minutes. Pre-study and on Days 10 and Day 17, whole blood was obtained from the tail vein and processed to serum for measurement of HRS^FC1.

[6] = test system: bleomycin-induced respiratory impairment; experiment: Respiratory measurements by whole body plethysmography, BLM rat model, combination study (Example 3, Table E6); assay type: in vivo, rat (male Sprague Dawley); set-up: Tidal Volume: unit not given here; settings: for Expiratory Time / Inspiratory Time / Peak Expiratory Flow / Peak Inspiratory Flow / Tidal Volume / Respiratory Rate / Respiratory Minute Volume: mean; for Respiratory Rate: in breaths/min (unit assumed); for Respiratory Minute Volume: in mL/min (unit assumed)
Method: as §4, §5, §6

[7] = test system: bleomycin-induced lung fibrosis; experiment: Histological fibrosis (modified Ashcroft) score, BLM rat model, combination study (Example 3); assay type: in vivo, rat (male Sprague Dawley); settings: BLM-induced rats; alone or in combination, vs PO plus IV vehicles; data not shown
Method: (§7) The five lung lobes were collected and weighed. On Day 17, the right accessory lobe was retained and desiccated to obtain dry weight. The remaining right lung lobes were inflated and fixed in 10% neutral buffered formalin and embedded in paraffin for histological analysis. An approximately 50 mg piece of the left lung lobe was snap frozen and stored at −80° C. for potential RNA analysis. The remainder of the lobe was also snap frozen until analyzed for collagen content.
(§8) Sections for histology were stained using picrosirius red and were scored in a blinded fashion (1 score for each of the 3-4 lobes) by a veterinary pathologist using a modified Ashcroft score (Hubner et al., 2008). Hydroxyproline content was determined in the left lung lobe using a mass spectrometry method.
(§9) Slides were read by a veterinary pathologist and each of the 3 lobes evaluated was assigned 4 score types [Ashcroft for fibrosis (scores range from 0 to 8), perivascular/peribronchiolar inflammatory cell infiltrate (scores range from 0 to 5), interstitial/alveolar inflammatory cell infiltrate (scores range from 0 to 5), type II pneumocyte hyperplasia (scores range from 0 to 5)].

[8] = test system: bleomycin-induced lung inflammation; experiment: Interstitial/alveolar inflammatory cell infiltrate score, BLM rat model, combination study (Example 3); assay type: in vivo, rat (male Sprague Dawley); settings: BLM-induced rats; alone or in combination, vs PO plus IV vehicles; data not shown
Method: as §7, §8, §9

[9] = Serum HRS^FC1 levels by sandwich ELISA, BLM rat model (Example 3); assay type: in vivo, rat (male Sprague Dawley); settings: for Serum levels of HRS^FC1 ~24 hours post dose, vs HRS^FC1 plus oral vehicle: FIG. 6; for Amount of HRS^FC1 in serum 24 hours after IV injection: second confirmatory study, identical methods, data not shown
Method: as §5, §6
Serum samples from animals treated with HRS^FC1 were used to determine levels of the protein in systemic circulation using standard sandwich ELISA techniques with antibodies that capture the HRS moiety and detect the Fc portion of the fusion protein.
All statistical analyses were performed using GraphPad Prism (GraphPad Software, San Diego, Calif.). Groups were compared using the one-way ANOVA test (histology, lung weights, collagen content) or two-way repeated measures ANOVA test (pharmacokinetics), followed, when appropriate by a post-hoc Dunnett test.

[10] = Day 8 (prior to any treatments), Pirf. PO + Vehicle IV group

In the case of `C[C@@H]1C[C@H]2[C@@H]3CCC4=CC(=O)C=C[C@]4(C)[C@@]3(F)[C@@H](O)C[C@]2(C)[C@@]1(O)C(=O)CO` [dexamethasone], the Survival rate ([1]; BLM-induced mice to Day 21, daily PO from Day 0: dexamethasone 0.25 mg/kg, Nintedanib 60 mg/kg) is reported as 75%, the “Survival (number of animals surviving to study day)” value ([1]; Day 11) is reported as 12 and the “Survival (number of animals surviving to study day)” value ([1]; Day 12) is reported as 12. For the same compound, the “Survival (number of animals surviving to study day)” value ([1]; Day 13) was 11, the “Survival (number of animals surviving to study day)” value ([1]; Day 14) was 10 and the “Survival (number of animals surviving to study day)” value ([1]; Day 15) was 10. The “Survival (number of animals surviving to study day)” value ([1]; Day 16) was 10, the “Survival (number of animals surviving to study day)” value ([1]; Day 17) was 10 and the “Survival (number of animals surviving to study day)” value ([1]; Day 18) was 9. The “Survival (number of animals surviving to study day)” value ([1]; Day 19) was 9, the “Survival (number of animals surviving to study day)” value ([1]; Day 20) was 9 and the “Survival (number of animals surviving to study day)” value ([1]; Day 21) was 9. The “Body weight, of initial body weights” value [2] was “around 90%”, the “Decrease of lung wet weight compared to PO vehicle group” value [3] was 15.6% and the “Improvement of Ashcroft fibrosis score” value [4] was 11.3%.

In the case of `Cc1ccc(=O)n(-c2ccccc2)c1` [Pirfenidone, pirfenidone], the “Body weight curves vs respective controls” value [5] is reported as “None of the groups treated with Nintedanib, Pirfenidone or Test Article alone or in combination had body weight curves that significantly differed”, the “BLM-induced alterations in respiratory parameters” value ([6]; BLM-induced rats, Day 15 and Day 21, Nintedanib, Pirfenidone or Test Article (HRS^FC1)) is reported as “did not significantly impact” and the “Interstitial inflammatory cell infiltrate (as printed in the Ashcroft score paragraph)” value [7] is reported as “no significant effect”. The “Interstitial inflammatory cell infiltrate” value [8] was “no significant effect”.

With `Cc1ccc(=O)n(-c2ccccc2)c1` [Pirf.] the Expiratory Time [6, 10] was 0.153 s, the Inspiratory Time [6, 10] was 0.114 s and the “Peak Expiratory Flow” value [6, 10] was 19.5. The “Peak Inspiratory Flow” value [6, 10] was 17.5, the “Tidal Volume” value [6, 10] was 1.24 and the “Respiratory Rate” value [6, 10] was 247.6. For the same compound, the “Respiratory Minute Volume” value [6, 10] was 314.8, the Expiratory Time ([6]; Day 15, Pirf. PO + Vehicle IV) was 0.193 s and the Inspiratory Time ([6]; Day 15, Pirf. PO + Vehicle IV) was 0.135 s. The “Peak Expiratory Flow” value ([6]; Day 15, Pirf. PO + Vehicle IV) was 15.0, the “Peak Inspiratory Flow” value ([6]; Day 15, Pirf. PO + Vehicle IV) was 15.6 and the “Tidal Volume” value ([6]; Day 15, Pirf. PO + Vehicle IV) was 1.23. The “Respiratory Rate” value ([6]; Day 15, Pirf. PO + Vehicle IV) was 206.2, the “Respiratory Minute Volume” value ([6]; Day 15, Pirf. PO + Vehicle IV) was 260.2 and the Expiratory Time ([6]; Day 21, Pirf. PO + Vehicle IV) was 0.234 s. For the same compound, the Inspiratory Time ([6]; Day 21, Pirf. PO + Vehicle IV) was 0.148 s, the “Peak Expiratory Flow” value ([6]; Day 21, Pirf. PO + Vehicle IV) was 13.0 and the “Peak Inspiratory Flow” value ([6]; Day 21, Pirf. PO + Vehicle IV) was 15.8. The “Tidal Volume” value ([6]; Day 21, Pirf. PO + Vehicle IV) was 1.43, the “Respiratory Rate” value ([6]; Day 21, Pirf. PO + Vehicle IV) was 186.5 and the “Respiratory Minute Volume” value ([6]; Day 21, Pirf. PO + Vehicle IV) was 259.6.

In the case of “HRS^FC1: Test Article of Examples 2 and 3; HRS-Fc fusion protein Fc-HRS(2-60)”, the “Serum levels of HRS^FC1, change between Days 17 and 22” value ([9]; BLM-induced rats, 3 mg/kg IV on Days 9 and 16) is reported as “decreased”, the “Serum levels of HRS^FC1” value ([9]; BLM-induced rats, 3 mg/kg IV on Days 9 and 16, Days 10, 17 and 22) is reported as “detectable” and the “Serum levels of HRS^FC1 ~24 hours post dose, vs HRS^FC1 plus oral vehicle” value ([9]; BLM-induced rats, concomitant oral Nintedanib 60 mg/kg once daily) is reported as “significantly increased”. The “Serum levels of HRS^FC1 ~24 hours post dose, vs HRS^FC1 plus oral vehicle” value ([9]; BLM-induced rats, concomitant oral Pirfenidone 70 mg/kg per dose three times daily) was “significantly increased”, the “Amount of HRS^FC1 in serum 24 hours after IV injection” value ([9]; concomitant Nintedanib) was “increased” and the “Amount of HRS^FC1 in serum 24 hours after IV injection” value ([9]; concomitant Pirfenidone) was “increased”.
